# Reference: EP2716637A1, “MANGIFERIN AGLYCONE CRYSTAL FORM I AND PREPARATION METHOD THEREOF” (Kunming Pharmaceutical Corp., priority 2011, dated 2012)
# Like-named read-outs stand apart in the source and are kept apart here.
# Assays:
# [1] = tested on: C57BL/6 normal mouse; conditions: reported from CN200810196777.4, cited from earlier work
# [2] = Stability of solutions in alkaline phosphate buffer, content by HPLC; assay type: physicochemical; conditions: for remaining at 2 h / remaining at 4 h / remaining at 6 h / remaining at 8 h / remaining at 12 h: phosphate buffer, read-out: content of mangiferin aglycone
# Description: Appropriate amounts of mangiferin aglycone crystal form I and mangiferin aglycone were taken respectively, and phosphate buffer of pH 8.0, pH 9.0 and pH 10.0 were added respectively, metered to 100 ml, and were allowed to stand at 37°C, and samples were taken at 2, 4, 6, 8 and 12 hours respectively, and the content of mangiferin aglycone were measured by HPLC method. Stability of solution of mangiferin aglycone crystal form I
# [3] = Blood concentration after oral (intragastric) administration to Beagle dogs; assay type: in vivo; conditions: for concentration: listed as Commercially available mangiferin aglycone
# Description: Solid powder of mangiferin aglycone crystal form I and commercially available mangiferin aglycone (reference substance of mangiferin aglycone, purchased from Sigma Corporation, Lot No.: 8420-201002) were administered to Beagle dogs intragastrically respectively. The dosage of administration was 6mg/kg, and arterial blood of the dogs was drawn at different time points after administration to determine the content of mangiferin aglycone (See Table 4 and Figure 6). Table 4. Comparison of blood concentrations at different time points after mangiferin aglycone samples were administered orally to Beagle dogs
# [4] = tested on: C57BL/6 normal mice and ob/ob diabetes model mice; conditions: cited from earlier work
# [5] = molecular target: T1, recombinant humanized protein tyrosine phosphatase 1B (Homo sapiens, UniProt P18031); conditions: reported from CN200910184185.5; cited from earlier work
# T1 sequence (P18031 1-435): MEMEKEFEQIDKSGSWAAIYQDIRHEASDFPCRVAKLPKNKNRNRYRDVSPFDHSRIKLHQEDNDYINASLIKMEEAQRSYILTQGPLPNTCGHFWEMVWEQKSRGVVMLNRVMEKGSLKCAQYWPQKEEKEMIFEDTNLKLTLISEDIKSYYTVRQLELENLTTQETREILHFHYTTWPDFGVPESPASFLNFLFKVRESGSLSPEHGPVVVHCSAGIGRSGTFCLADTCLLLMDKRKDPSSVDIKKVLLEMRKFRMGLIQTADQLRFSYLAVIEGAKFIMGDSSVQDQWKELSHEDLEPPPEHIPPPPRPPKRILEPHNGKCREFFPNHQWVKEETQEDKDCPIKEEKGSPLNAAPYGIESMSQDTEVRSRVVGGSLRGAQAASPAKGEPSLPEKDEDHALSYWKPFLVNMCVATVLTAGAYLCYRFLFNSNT
# [6] = Active destructing test (stability) with HPLC analysis; assay type: physicochemical
# Description: Active destructing test of mangiferin aglycone crystal form I: high purity mangiferin aglycone obtained in the same batch was respectively subjected to the following treatments: • (1) Destruction by strong acid: 0.5 mg sample was precisely weighed in a 50 ml measuring flask, and 1 ml of 0.1 mol/L hydrochloric acid aqueous solution was added, mixed evenly, and was allowed to stand for 48 hours at 20~30°C; • (2) Destruction by strong base: 0.5 mg sample was precisely weighed in a 50 ml measuring flask, and 1 ml of 0.1 mol/L sodium hydroxide aqueous solution was added, mixed evenly, and was allowed to stand for 48 hours at 20~30°C; • (3) Destruction by strong oxidant: 0.5 mg sample was precisely weighed in a 50 ml measuring flask, and 1 ml of 10% aqueous solution of hydrogen peroxide (H2O2) was added, mixed evenly, and was allowed to stand for 48 hours at 20~30°C; • (4) Destruction by high temperature: 0.5 mg sample was precisely weighed in a 50 ml measuring flask, and was allowed to stand for 48 hours at 100°C; • (5) Destruction by strong light: 0.5 mg sample was precisely weighed in a 50 ml measuring flask, and was allowed to stand for 240 hours under strong light condition of 4500±500 lux. The above-mentioned testing samples were taken out at specified time points, and methanol was added to dissolve and diluted the sample to the scale mark, shook well, then […] samples were analyzed by HPLC.
# Stability test of mangiferin aglycone crystal form I
# [7] = destructing by high temperature: 48 hours at 100°C
# [8] = destructing by strong acid: 0.1 mol/L hydrochloric acid, 48 hours at 20~30°C
# [9] = destructing by strong base: 0.1 mol/L sodium hydroxide, 48 hours at 20~30°C
# [10] = destructing by strong light: 240 hours at 4500±500 lux
# [11] = destructing by strong oxidant: 10% hydrogen peroxide, 48 hours at 20~30°C
compound,measurement,setting,value
"O=c1c2cc(O)c(O)cc2oc2cc(O)cc(O)c12 [mangiferin aglycone, 1,3,6,7-tetrahydroxyxanthone]",in vivo secretion of insulin induced by glucose,[1]; C57BL/6-normal mouse,increase
same,IGTT,[1]; C57BL/6 normal mouse,significantly improve
same,content of mangiferin aglycone,"[2]; phosphate buffer pH8, 37°C, standing time 2h, 120 min",98.5%
same,content of mangiferin aglycone,"[2]; phosphate buffer pH8, 37°C, standing time 4h, 240 min",97.5%
same,content of mangiferin aglycone,"[2]; phosphate buffer pH8, 37°C, standing time 6h, 360 min",96.3%
same,content of mangiferin aglycone,"[2]; phosphate buffer pH8, 37°C, standing time 8h, 480 min",94.5%
same,content of mangiferin aglycone,"[2]; phosphate buffer pH8, 37°C, standing time 12h, 720 min",93.2%
same,content of mangiferin aglycone,"[2]; phosphate buffer pH9, 37°C, standing time 2h, 120 min",97.3%
same,content of mangiferin aglycone,"[2]; phosphate buffer pH9, 37°C, standing time 4h, 240 min",94.3%
same,content of mangiferin aglycone,"[2]; phosphate buffer pH9, 37°C, standing time 6h, 360 min",93.4%
same,content of mangiferin aglycone,"[2]; phosphate buffer pH9, 37°C, standing time 8h, 480 min",92.3%
same,content of mangiferin aglycone,"[2]; phosphate buffer pH9, 37°C, standing time 12h, 720 min",91.0%
same,content of mangiferin aglycone,"[2]; phosphate buffer pH10, 37°C, standing time 2h, 120 min",97.7%
same,content of mangiferin aglycone,"[2]; phosphate buffer pH10, 37°C, standing time 4h, 240 min",93.8%
same,content of mangiferin aglycone,"[2]; phosphate buffer pH10, 37°C, standing time 6h, 360 min",92.1%
same,content of mangiferin aglycone,"[2]; phosphate buffer pH10, 37°C, standing time 8h, 480 min",91.0%
same,content of mangiferin aglycone,"[2]; phosphate buffer pH10, 37°C, standing time 12h, 720 min",90.3%
same,concentration,"[3]; intragastrically, 6mg/kg, solid powder, 0.25 hr, 6 mg/kg, 15 min, read-out: Mangiferin aglycone concentration in serum",666 nM
same,concentration,"[3]; intragastrically, 6mg/kg, solid powder, 0.5 hr, 6 mg/kg, 30 min, read-out: Mangiferin aglycone concentration in serum",404 nM
same,concentration,"[3]; intragastrically, 6mg/kg, solid powder, 0.75 hr, 6 mg/kg, 45 min, read-out: Mangiferin aglycone concentration in serum",414 nM
same,concentration,"[3]; intragastrically, 6mg/kg, solid powder, 1 hr, 6 mg/kg, 60 min, read-out: Mangiferin aglycone concentration in serum",366 nM
same,concentration,"[3]; intragastrically, 6mg/kg, solid powder, 1.5 hr, 6 mg/kg, 90 min, read-out: Mangiferin aglycone concentration in serum",136 nM
same,concentration,"[3]; intragastrically, 6mg/kg, solid powder, 2 hr, 6 mg/kg, 120 min, read-out: Mangiferin aglycone concentration in serum",108 nM
same,concentration,"[3]; intragastrically, 6mg/kg, solid powder, 3 hr, 6 mg/kg, 180 min, read-out: Mangiferin aglycone concentration in serum",100 nM
same,concentration,"[3]; intragastrically, 6mg/kg, solid powder, 4 hr, 6 mg/kg, 240 min, read-out: Mangiferin aglycone concentration in serum",70.1 nM
same,concentration,"[3]; intragastrically, 6mg/kg, solid powder, 6 hr, 6 mg/kg, 360 min, read-out: Mangiferin aglycone concentration in serum",52.6 nM
same,concentration,"[3]; intragastrically, 6mg/kg, solid powder, 8 hr, 6 mg/kg, 480 min, read-out: Mangiferin aglycone concentration in serum",41.3 nM
same,blood concentration,"[3]; same oral dosage, compared with mangiferin aglycone crystal form I",significantly lower
same,blood glucose of the experimental animal,[4],reduce
same,sensitivity to insulin,[4],significantly improve
same,type of inhibition,[5],competitive inhibitor
"O=c1c2cc(O)c(O)cc2oc2cc(O)cc(O)c12 [mangiferin aglycone crystal form I, 1,3,6,7-tetrahydroxyxanthone]",stability of solution,"[2]; different alkaline phosphate buffer solutions, compared with mangiferin aglycone",better
same,remaining at 2 h,"[2]; pH 8, phosphate buffer pH8, 37°C, standing time 2h",98.6%
same,remaining at 4 h,"[2]; pH 8, phosphate buffer pH8, 37°C, standing time 4h",98.4%
same,remaining at 6 h,"[2]; pH 8, phosphate buffer pH8, 37°C, standing time 6h",98.3%
same,remaining at 8 h,"[2]; pH 8, phosphate buffer pH8, 37°C, standing time 8h",98.2%
same,remaining at 12 h,"[2]; pH 8, phosphate buffer pH8, 37°C, standing time 12h",97.5%
same,remaining at 2 h,"[2]; pH 9, phosphate buffer pH9, 37°C, standing time 2h",98.5%
same,remaining at 4 h,"[2]; pH 9, phosphate buffer pH9, 37°C, standing time 4h",98.2%
same,remaining at 6 h,"[2]; pH 9, phosphate buffer pH9, 37°C, standing time 6h",98%
same,remaining at 8 h,"[2]; pH 9, phosphate buffer pH9, 37°C, standing time 8h",97.8%
same,remaining at 12 h,"[2]; pH 9, phosphate buffer pH9, 37°C, standing time 12h",97.2%
same,remaining at 2 h,"[2]; pH 10, phosphate buffer pH10, 37°C, standing time 2h",97.2%
same,remaining at 4 h,"[2]; pH 10, phosphate buffer pH10, 37°C, standing time 4h",97.4%
same,remaining at 6 h,"[2]; pH 10, phosphate buffer pH10, 37°C, standing time 6h",97%
same,remaining at 8 h,"[2]; pH 10, phosphate buffer pH10, 37°C, standing time 8h",96.3%
same,remaining at 12 h,"[2]; pH 10, phosphate buffer pH10, 37°C, standing time 12h",95%
same,concentration at 0.25 h,"[3]; dog, serum, po, 6 mg/kg, intragastrically, 6mg/kg, solid powder, 0.25 hr, read-out: Mangiferin aglycone concentration in serum",721 nM
same,concentration at 0.5 h,"[3]; dog, serum, po, 6 mg/kg, intragastrically, 6mg/kg, solid powder, 0.5 hr, read-out: Mangiferin aglycone concentration in serum",470 nM
same,concentration at 0.75 h,"[3]; dog, serum, po, 6 mg/kg, intragastrically, 6mg/kg, solid powder, 0.75 hr, read-out: Mangiferin aglycone concentration in serum",601 nM
same,concentration at 1 h,"[3]; dog, serum, po, 6 mg/kg, intragastrically, 6mg/kg, solid powder, 1 hr, read-out: Mangiferin aglycone concentration in serum",387 nM
same,concentration at 1.5 h,"[3]; dog, serum, po, 6 mg/kg, intragastrically, 6mg/kg, solid powder, 1.5 hr, read-out: Mangiferin aglycone concentration in serum",163 nM
same,concentration at 2 h,"[3]; dog, serum, po, 6 mg/kg, intragastrically, 6mg/kg, solid powder, 2 hr, read-out: Mangiferin aglycone concentration in serum",158 nM
same,concentration at 3 h,"[3]; dog, serum, po, 6 mg/kg, intragastrically, 6mg/kg, solid powder, 3 hr, read-out: Mangiferin aglycone concentration in serum",119 nM
same,concentration at 4 h,"[3]; dog, serum, po, 6 mg/kg, intragastrically, 6mg/kg, solid powder, 4 hr, read-out: Mangiferin aglycone concentration in serum",96 nM
same,concentration at 6 h,"[3]; dog, serum, po, 6 mg/kg, intragastrically, 6mg/kg, solid powder, 6 hr, read-out: Mangiferin aglycone concentration in serum",84.4 nM
same,concentration at 8 h,"[3]; dog, serum, po, 6 mg/kg, intragastrically, 6mg/kg, solid powder, 8 hr, read-out: Mangiferin aglycone concentration in serum",80.8 nM
same,oral bioavailability,"[3]; same oral dosage, compared with commercially available mangiferin aglycone",higher
same,"stability to light, moisture, heat",[6]; conclusion from the active destructing test,stable
same,peak area of mangiferin aglycone,[6]; [7],233
same,situations of other degradation products,[6]; [7],No new peak for degradation product was found
same,peak area of mangiferin aglycone,[6]; [8],234
same,situations of other degradation products,[6]; [8],No new peak for degradation product was found
same,peak area of mangiferin aglycone,[6]; [9],0
same,situations of other degradation products,[6]; [9],"UV shift occurred, and there were many peaks for degradation products"
same,peak area of mangiferin aglycone,[6]; [10],234
same,situations of other degradation products,[6]; [10],No peak for degradation product was found
same,peak area of mangiferin aglycone,[6]; [11],215
same,situations of other degradation products,[6]; [11],One new degradation product was found
same,peak area of mangiferin aglycone,[6]; undestructed (baseline sample),234
same,situations of other degradation products,[6]; undestructed (baseline sample),No new peak for degradation product was found
